How the values were obtained:
CCK-2R = target: T1, CCK-2R (Rattus norvegicus, UniProt P30553); parameters: method as in earlier work; conditions: % of applied activity, 37 °C, AR42J cells, identical conditions, cited from earlier work
T1 construct: CCK-2R-expressing rat pancreatic cancer cells AR42J; host or cells: AR42J (rat pancreatic cancer cells)
T1 sequence (P30553 1-452): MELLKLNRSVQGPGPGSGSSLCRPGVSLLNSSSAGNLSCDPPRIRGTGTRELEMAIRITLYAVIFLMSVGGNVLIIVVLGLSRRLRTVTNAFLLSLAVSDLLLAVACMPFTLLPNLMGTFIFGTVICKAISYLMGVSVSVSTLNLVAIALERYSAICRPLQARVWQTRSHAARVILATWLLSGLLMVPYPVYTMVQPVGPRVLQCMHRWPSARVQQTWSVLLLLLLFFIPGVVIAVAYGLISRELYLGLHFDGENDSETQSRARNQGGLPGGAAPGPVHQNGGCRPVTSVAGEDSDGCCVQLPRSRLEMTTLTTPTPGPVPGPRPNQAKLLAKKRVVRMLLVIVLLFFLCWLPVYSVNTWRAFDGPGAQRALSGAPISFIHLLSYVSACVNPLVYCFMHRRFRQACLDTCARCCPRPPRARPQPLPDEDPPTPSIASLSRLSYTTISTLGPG

[1] = tested on: AR42J tumor-bearing CB17-SCID mice; conditions: 24 h p.i., 100 pmol; cited from earlier work
[2] = Lipophilicity (logD7.4), n-octanol/PBS pH 7.4; type: physicochemical; conditions: n-octanol/PBS pH 7.4; read-out: logD7.4
Method: Cell-based experiments and determination of lipophilicity (logD7.4) were performed as previously published. A detailed description of the in vitro experiments is provided in the Supplementary Materials.
Cell Culture. CCK-2R-expressing rat pancreatic cancer cells AR42J (CLS GmbH, Eppelheim, Germany) were cultivated in monolayers in CELLSTAR® cell culture flasks acquired from Greiner Bio-One GmbH (Frickenhausen, Germany) at 37°C in a humidified atmosphere (5% CO2) using a HERAcell 150i-Incubator (Thermo Fisher Scientific Inc., Waltham, United States). The nutrient medium RPMI 1640 medium, supplemented with 5 mM L-Gln 5 mL non-essential amino acids (100×) and 10% FCS, was used. Furthermore, a Dulbecco’s PBS solution with 0.1% EDTA (v/v) was applied to detach the cells for cell passaging. The detached cells were counted using a Neubauer hemocytometer (Paul Marienfeld, Lauda-Königshofen, Germany). In addition, all operations under sterile conditions were accomplished using a MSC-Advantage safety workbench (Thermo Fisher Scientific Inc., Waltham, United States).
Determination of IC50. AR42J cells (2.0 × 10^5 cells/well) were seeded into 24-well plates 24 ± 2 h prior to testing using 1 mL of nutrient medium (RPMI 1640, 5 mM L-Gln, 5 mL non-essential amino acids (100×), 10% FCS). Cells were incubated at 37°C in a humidified atmosphere (5% CO2).
After the removal of the medium, each well was washed with 500 μL PBS. For the cell-based assay, 200 μL of the nutrient medium (+5% BSA), [ 177Lu]Lu-DOTA-PP-F11N (25 μL, 0.3 pmol) as a radiolabeled reference and 25 μL of the peptide of interest in increasing concentrations (10 −10 to 10−4 M) were added to the cells in triplicate. Thereafter, the assay was incubated for 3 h at 37°C and the supernatant was collected. The cells were washed with 300 μL PBS and the collected supernatant fractions were unified.
After lysis of the cells with NaOH (300 μL, 1 N) for 15 min, the respective wells were washed with NaOH (300 μ L, 1 N) and both fractions were unified. The radioactivity of both the supernatant and the lysed fractions were quantified using a γ-counter (PerkinElmer Inc., Waltham, United States). The obtained data were evaluated via the GraphPad PRISM software (GraphPad Software Inc., La Jolla, United States), which calculates the half-maximal inhibitory concentration (IC50) of the peptides.
Internalization Studies. For the determination of the internalization kinetics of the various peptides, AR42J cells (3.0 × 10^5 cells/well) were seeded into polylysine-coated 24-well plates, adding 1 mL of nutrient medium. Afterwards, the cells were incubated for 24 ± 2 h at 37°C in a humidified atmosphere […]
On the day of the experiment, the medium was removed, and each well was washed with nutrient medium (300 μL). Afterwards 200 μL of nutrient medium, 25 μL of the 177Lu-labeled peptide (0.3 pmol, n = 6) and either 25 μL of nutrient medium for internalization studies ( n = 3) or 25 μL of [natLu]Lu-DOTA-PP-F11N (10 μmol) for competition studies ( n = 3) were added. Thereafter, the assay was incubated for various time points (1, 2, 4 and 6 h) at 37°C in a humidified atmosphere (5% CO2). After incubation, the cells were put on ice for at least 1 min to stop internalization kinetics and the supernatant was collected. Then, the cells were washed with an ice-cold nutrient medium (300 μL) and both fractions were unified. […] The radioactivity of the supernatant, the acid wash and the lysed fractions were quantified using a γ-counter. […]

In the case of `CCCC[C@H](NC(=O)[C@H](Cc1c[nH]c2ccccc12)NC(=O)CNC(=O)[C@H](Cc1ccc(O)cc1)NC(=O)[C@H](C)NC(=O)[C@@H](CCC(=O)O)NC(=O)[C@@H](CCC(=O)O)NC(=O)[C@@H](CCC(=O)O)NC(=O)[C@@H](CCC(=O)O)NC(=O)[C@@H](CCC(=O)O)NC(=O)[C@@H](CCC(=O)O)NC(=O)CN1CCN(CC(=O)O)CCN(CC(=O)O)CCN(CC(=O)O)CC1)C(=O)N[C@@H](CC(=O)O)C(=O)N[C@@H](Cc1ccccc1)C(N)=O` [[^177Lu]Lu-DOTA-PP-F11N, metal not drawn], the “Internalization Values (%) 1 h” value (CCK-2R; 1 h) is listed as 6.44 ± 0.32%, the “Internalization Values (%) 2 h” value (CCK-2R; 2 h) is listed as 10.1 ± 0.4% and the “Internalization Values (%) 4 h” value (CCK-2R; 4 h) is listed as 17.5 ± 1.0%. The “Internalization Values (%) 6 h” value (CCK-2R; 6 h) was 22.4 ± 0.6%, the “activity uptake in the tumor” value [1] was 1.9 ± 0.8 %ID/g and the logD [2] was < -4.
